Target: PIK3CD (Human) (UniProt O00329)
Assay: Cell-Based Assay
Settings: u937

Chain of PIK3CD (Human) (O00329 whole entry, looked up): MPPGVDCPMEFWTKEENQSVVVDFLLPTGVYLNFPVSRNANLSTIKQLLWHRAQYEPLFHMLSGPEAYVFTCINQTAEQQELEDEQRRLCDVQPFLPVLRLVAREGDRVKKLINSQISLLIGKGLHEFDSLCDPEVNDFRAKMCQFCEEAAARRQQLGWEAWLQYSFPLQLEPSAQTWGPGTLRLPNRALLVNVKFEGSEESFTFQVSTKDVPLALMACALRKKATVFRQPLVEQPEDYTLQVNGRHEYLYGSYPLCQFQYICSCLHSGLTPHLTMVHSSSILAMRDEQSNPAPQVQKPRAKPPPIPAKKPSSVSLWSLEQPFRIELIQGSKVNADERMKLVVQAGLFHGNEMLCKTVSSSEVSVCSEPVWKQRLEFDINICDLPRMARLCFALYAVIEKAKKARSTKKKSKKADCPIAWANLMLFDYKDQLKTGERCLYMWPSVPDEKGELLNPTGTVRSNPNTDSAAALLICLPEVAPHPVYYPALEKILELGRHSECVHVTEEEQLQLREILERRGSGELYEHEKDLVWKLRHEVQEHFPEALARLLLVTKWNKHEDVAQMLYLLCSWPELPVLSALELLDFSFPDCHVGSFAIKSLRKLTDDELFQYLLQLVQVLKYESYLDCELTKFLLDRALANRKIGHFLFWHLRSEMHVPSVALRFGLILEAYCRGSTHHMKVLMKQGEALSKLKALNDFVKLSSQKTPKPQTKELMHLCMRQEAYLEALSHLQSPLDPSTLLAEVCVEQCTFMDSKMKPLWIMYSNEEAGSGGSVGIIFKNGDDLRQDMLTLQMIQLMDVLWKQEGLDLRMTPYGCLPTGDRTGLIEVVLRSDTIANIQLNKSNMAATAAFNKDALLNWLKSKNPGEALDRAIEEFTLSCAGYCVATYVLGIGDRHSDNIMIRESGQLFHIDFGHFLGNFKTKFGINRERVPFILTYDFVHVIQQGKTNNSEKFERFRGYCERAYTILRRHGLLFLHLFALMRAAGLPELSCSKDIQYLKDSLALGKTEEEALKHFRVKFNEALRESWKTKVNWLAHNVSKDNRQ

| IC50 [nM] | SMILES |
| --- | --- |
| < 10 | C#Cc1cccc2nc(Cn3nc(-c4cccc(O)c4)c4c(N)ncnc43)n(Cc3cccc(C(F)(F)F)c3)c(=O)c12 |
| < 10 | C#Cc1cccc2nc(Cn3nc(-c4ccc(O)cc4)c4c(N)ncnc43)n(Cc3ccccc3C(F)(F)F)c(=O)c12 |
| < 10 | Nc1ncnc2c1c(-c1cccc(O)c1)nn2Cc1nc2cccc(C#CCCCCC(=O)N3CCOCC3)c2c(=O)n1Cc1ccccc1Cl |
| < 10 | Nc1ncnc2c1c(-c1ccc(O)cc1)nn2Cc1nc2cccc(C#CCCCC(=O)NCCN3CCOCC3)c2c(=O)n1Cc1ccccc1Cl |
| 10 to 1000 | Nc1ncnc2c1c(-c1cccc(O)c1)nn2Cc1nc2cccc(C#CCCCC(=O)Nc3ccncc3)c2c(=O)n1Cc1ccccc1Cl |
| < 10 | COCC#Cc1cccc2nc(Cn3nc(-c4ccc(O)cc4)c4c(N)ncnc43)n(Cc3ccccc3Cl)c(=O)c12 |
| < 10 | C#Cc1cccc2nc(Cn3nc(-c4ccc(O)cc4)c4c(N)ncnc43)n(Cc3cccc(Cl)c3F)c(=O)c12 |
| < 10 | Nc1ncnc2c1c(-c1ccc(O)cc1)nn2Cc1nc2cccc(C#CCCCC(=O)NC3CCOCC3)c2c(=O)n1Cc1ccccc1Cl |
| < 10 | Nc1ncnc2c1c(-c1cccc(O)c1)nn2Cc1nc2cccc(C#CCCC(=O)N3CCOCC3)c2c(=O)n1Cc1ccccc1Cl |
| < 10 | Nc1ncnc2c1c(-c1cccc(O)c1)nn2Cc1nc2cccc(C#CCCCC(=O)N3CCOCC3)c2c(=O)n1Cc1ccc2occc2c1 |
| < 10 | C#Cc1cccc2nc(Cn3nc(-c4ccc(O)cc4)c4c(N)ncnc43)n(Cc3c(F)cccc3F)c(=O)c12 |
| < 10 | C#Cc1cccc2nc(Cn3nc(-c4cccc(O)c4)c4c(N)ncnc43)n(Cc3ccc(Cl)cc3)c(=O)c12 |
| < 10 | COc1cccc(Cn2c(Cn3nc(-c4ccc(O)cc4)c4c(N)ncnc43)nc3cccc(C#CCCCC(=O)N4CCOCC4)c3c2=O)c1F |
| < 10 | Nc1ncnc2c1c(-c1ccc(O)cc1)nn2Cc1nc2cccc(C#CCCCC(=O)N3CCCCC3)c2c(=O)n1Cc1ccccc1Cl |
| < 10 | COCC#Cc1cccc2nc(Cn3nc(-c4ccc(O)cc4)c4c(N)ncnc43)n(Cc3cccc(OC)c3)c(=O)c12 |
| < 10 | CN(C)C(=O)CCCC#Cc1cccc2nc(Cn3nc(-c4ccc(O)cc4)c4c(N)ncnc43)n(Cc3ccccc3Cl)c(=O)c12 |
| 10 to 1000 | CN(C)C1CCN(C(=O)CCCC#Cc2cccc3nc(Cn4nc(-c5cccc(O)c5)c5c(N)ncnc54)n(Cc4ccccc4Cl)c(=O)c23)C1 (centres undefined) |
| < 10 | Nc1ncnc2c1c(-c1ccc(O)cc1)nn2Cc1nc2cccc(C#CCOCc3ccccc3)c2c(=O)n1Cc1ccccc1Cl |
| < 10 | Nc1ncnc2c1c(-c1cccc(O)c1)nn2Cc1nc2cccc(C#CCCCCC(=O)O)c2c(=O)n1Cc1ccccc1Cl |
| < 10 | COCCN(CCCC#Cc1cccc2nc(Cn3nc(-c4ccc(O)cc4)c4c(N)ncnc43)n(Cc3ccccc3Cl)c(=O)c12)CCOC |
| < 10 | CN(C)C1CCN(C(=O)CCCC#Cc2cccc3nc(Cn4nc(-c5ccc(O)cc5)c5c(N)ncnc54)n(Cc4ccccc4Cl)c(=O)c23)C1 (centres undefined) |
| < 10 | Nc1ncnc2c1c(-c1cccc(O)c1)nn2Cc1nc2cccc(C#CCCCC(=O)N3CCOCC3)c2c(=O)n1Cc1ccccc1Cl |
| < 10 | CN1CCCN(C(=O)CCCC#Cc2cccc3nc(Cn4nc(-c5ccc(O)cc5)c5c(N)ncnc54)n(Cc4ccccc4Cl)c(=O)c23)CC1 |
| < 10 | Nc1ncnc2c1c(-c1ccc(O)cc1)nn2Cc1nc2cccc(C#CCCCC(=O)N3CCOCC3)c2c(=O)n1Cc1cc2ccccc2s1 |
| < 10 | C#Cc1cccc2nc(Cn3nc(-c4ccc(F)c(O)c4)c4c(N)ncnc43)n(Cc3ccccc3Cl)c(=O)c12 |
| < 10 | Nc1ncnc2c1c(-c1ccc(O)cc1)nn2Cc1nc2cccc(C#CCCCC(=O)Nc3ccncc3)c2c(=O)n1Cc1ccccc1Cl |

| SMILES | IC50 [nM] |
| --- | --- |
| C#Cc1cccc2nc(Cn3nc(-c4ccc(O)cc4)c4c(N)ncnc43)n(Cc3ccccc3F)c(=O)c12 | < 10 |
| Nc1ncnc2c1c(-c1cccc(O)c1)nn2Cc1nc2cccc(C#CCOCCN3CCOCC3)c2c(=O)n1Cc1ccccc1Cl | < 10 |
| C#Cc1cccc2nc(Cn3nc(-c4ccc(O)cc4)c4c(N)ncnc43)n(Cc3cccc(Cl)c3)c(=O)c12 | < 10 |

— the Kinase Knowledgebase extract (Sharma et al. 2016)
